Common to all, as to type: binding
The target in experiment [1] is EmbC^CT(N740A) (Mycobacterium tuberculosis, UniProt P9WNL5, N740A).
Experiment [2] addresses EmbC^CT(H911A) (Mycobacterium tuberculosis, UniProt P9WNL5, H911A).
For experiment [3], the target named is EmbC^CT(W868A) (Mycobacterium tuberculosis, UniProt P9WNL5, W868A).
Experiment [4] concerns the target EmbC^CT(W985A) (Mycobacterium tuberculosis, UniProt P9WNL5, W985A).

On to `CCCCCCCCO[C@H]1O[C@H](CO[C@H]2O[C@H](CO)[C@@H](O)[C@@H]2O)[C@@H](O)[C@@H]1O` [Ara(1→5)Ara-O-C8, α-D-Araf-(1→5)-α-D-Araf-O-(CH2)7CH3], for which the figures for the Fmax in experiment [1], in experiment [2] and in experiment [3] were 0.141, 0.170 and 0.162, respectively. The “effect of W868A mutation on ligand binding (in words)” value in experiment [3] is recorded as “preserved binding”. For the same compound, in experiment [4], the “effect of W985A mutation on ligand binding (in words)” value is “virtually abrogated binding”.
As to `CCCCCCCCO[C@H]1O[C@H](CO[C@H]2O[C@H](CO[C@H]3O[C@H](CO[C@H]4O[C@H](CO[C@H]5O[C@H](CO)[C@@H](O)[C@@H]5O)[C@@H](O)[C@@H]4O)[C@@H](O)[C@@H]3O)[C@@H](O)[C@@H]2O)[C@@H](O)[C@@H]1O` [Ara(1→5)4Ara-O-C8, [α-D-Araf-(1→5)]4-α-D-Araf-O-(CH2)7CH3], the “effect of W868A mutation on ligand binding (in words)” value in experiment [3] was “completely inhibited”. Further, in experiment [4], the Fmax is 0.164 and the “effect of W985A mutation on ligand binding (in words)” value is listed as “insensitive”.

The values are drawn from PMC3044687, “The C-Terminal Domain of the Arabinosyltransferase Mycobacterium tuberculosis EmbC Is a Lectin-Like Carbohydrate Binding Module” (PLoS Pathogens, 2011).
